Test results from article PMC9598407, “Identification of Staphylococcus aureus Penicillin Binding Protein 4 (PBP4) Inhibitors” (Antibiotics, 2022).
≈ marks a conversion by molar mass, not a printed value.

Tests used:
S. aureus USA300 = experiment: Minimum inhibitory concentration (MIC) testing, strain USA300; type: cell-based, Staphylococcus aureus; details: for MIC: Staphylococcus aureus, USA300, read-out: Minimum inhibitory concentration; for Fold increase in resistance provided by PBP4: USA300 versus USA300∆pbp4 MIC; for Minimum inhibitory concentration: strain USA300
Description: (§1) The approach used was to initially search for compounds that reverse the antibiotic resistance profile of wild type cells to that of a pbp4 mutant. To define screening conditions three strains were employed, a wild type USA300 MRSA strain, an isogenic pbp4 deletion strain, and a complemented strain harboring a plasmid wildtype pbp4 copy. The antibiotic susceptibility profile of each strain was measured to determine the magnitude with which PBP4 affects resistance to various antibiotics (Table 1). […]. We anticipated that the greater dynamic range of the latter could provide a means to reliably screen for agents that inhibit PBP4 function. […].
(§2) S. aureus strain USA300 is a predominant cause of U.S. community-associated MRSA infections, whereas strain COL is a commonly studied hospital-associated MRSA strain. The S. aureus USA300 pbp4-null strain (USA300Δpbp4) and PBP4 complementation strain (USA300∆pbp4 pPBP4) have been previously described. Strain COLn is a laboratory derived tetracycline susceptible derivative of COL, whereas COLnex is a methicillin susceptible COLn derivative that has been cured of SCCmec thereby removing the mecA, which encodes PBP2a, and has been previously described. Strain CRB is a well-studied MRSA COLnex derivative that contains two amino acid substitutions (E183A and F241R) near the PBP4 active site and a 36-bp duplication 290-bp upstream of the pbp4 open reading frame leading to 20–40-fold overexpression of the gene. All strains were grown in Mueller Hinton (MH) broth at 37 °C, as indicated. Penicillin, streptomycin, ciprofloxacin, mupirocin, meropenem, and mitomycin C were purchased from Fisher Scientific (Waltham, MA, USA), whereas ceftobiprole was obtained from MedChemExpress LLC (Monmouth Junction, NJ, USA). The 30,000-member […]-EXP small molecule chemical library (Blocks 3–5) used in these studies was purchased from ChemBridge Corporation (San Diego, CA, USA).

S. aureus USA300∆pbp4 = experiment: MIC testing, strain USA300∆pbp4; type: cell-based, Staphylococcus aureus; details: for MIC: Staphylococcus aureus, USA300, read-out: Minimum inhibitory concentration
Description: as §1, §2

S. aureus COLnex = experiment: MIC testing, strain COLnex; type: cell-based; details: Staphylococcus aureus, read-out: Minimum inhibitory concentration
Description: (§3) To further evaluate their potential PBP4 inhibitor activity, prioritized compounds were tested for their ability to reverse PBP4 mediated antibiotic resistance in another S. aureus background using three isogenic strains that became available during our study (generous gift from Dr. S. Chatterjee; University of Maryland). These strains included: (1) COLnex, which is a methicillin susceptible strain, (2) CRB, a methicillin/ceftobiprole-resistant strain of COLnex that overproduces PBP4, and (3) CRB∆pbp4, a methicillin susceptible strain of CRB lacking the pbp4 gene.
as §2

S. aureus CRB = experiment: MIC testing, strain CRB (PBP4 overproducer); type: cell-based, Staphylococcus aureus; details: Staphylococcus aureus, read-out: Minimum inhibitory concentration, strain CRB
Description: as §3, §2

S. aureus CRB∆pbp4 = experiment: MIC testing, strain CRB∆pbp4; type: cell-based; details: Staphylococcus aureus, read-out: Minimum inhibitory concentration
Description: as §3, §2

[1] = tested on: S. aureus USA300∆pbp4 pPBP4; experiment: microbe, parasite or virus in culture; type: cell-based; details: Staphylococcus aureus, USA300, read-out: Minimum inhibitory concentration

Structure (SMILES) | MIC (S. aureus USA300) [µg/mL] | Fold increase in resistance provided by PBP4 (S. aureus USA300) | Minimum inhibitory concentration (S. aureus USA300) [µg/mL] | MIC (S. aureus USA300∆pbp4) [µg/mL] | Minimum inhibitory concentration (S. aureus USA300∆pbp4; strain USA300∆pbp4) [µg/mL] | MIC (S. aureus COLnex) [µg/mL] | MIC (S. aureus CRB) [µg/mL] | MIC (S. aureus CRB∆pbp4) [µg/mL] | MIC [1] [µg/mL]
O=C(O)c1cn(C2CC2)c2cc(N3CCNCC3)c(F)cc2c1=O [CIP, ciprofloxacin] | 4 (≈ 12.1 µM) | ~ 4 fold | 4 (≈ 12.1 µM) | 1 (≈ 3.02 µM) | 1 (≈ 3.02 µM) | 0.25 (≈ 0.754 µM) | 0.5 (≈ 1.51 µM) | 0.25 (≈ 0.754 µM) | –
CCOc1ccc2ccccc2c1C(=O)N[C@@H]1C(=O)N2[C@@H]1SC(C)(C)[C@@H]2C(=O)O [NAF, nafcillin] | 8 (≈ 19.3 µM) | 2 fold | 8 (≈ 19.3 µM) | 4 (≈ 9.65 µM) | – | 0.25 (≈ 0.603 µM) | > 128 | 0.25 (≈ 0.603 µM) | 8 (≈ 19.3 µM)
C/C(=C\C(=O)OCCCCCCCCC(=O)O)C[C@@H]1OC[C@H](C[C@@H]2O[C@H]2[C@@H](C)[C@H](C)O)[C@@H](O)[C@H]1O [MUP, mupirocin] | 0.125 (≈ 0.25 µM) | – | – | 0.125 (≈ 0.25 µM) | – | 0.03 (≈ 0.0599 µM) | 0.03 (≈ 0.0599 µM) | 0.03 (≈ 0.0599 µM) | 0.125 (≈ 0.25 µM)
C[C@@H](O)[C@H]1C(=O)N2C(C(=O)O)=C(S[C@@H]3CN[C@H](C(=O)N(C)C)C3)[C@H](C)[C@H]12 [MER, meropenem] | 4 (≈ 10.4 µM) | 2 fold | 4 (≈ 10.4 µM) | 2 (≈ 5.22 µM) | – | 1 (≈ 2.61 µM) | 64 (≈ 167 µM) | 1 (≈ 2.61 µM) | 4 (≈ 10.4 µM)
